Measured values taken from PubChem BioAssay AID330 (DTP/NCI, 2004).
“And” between values parts separate entries of the source, which are not always exact repeats. Equal entries are not always repeated. Toxic doses and inconclusive results are not listed. The calls were made as follows: active = survival T/C of 150% or more; inactive = T/C below 125% in these data.

Test system: P388 leukemia ip, CD2F1 mice, survival T/C
Test: NCI In Vivo Anticancer Drug Screen. Data for tumor model P388 Leukemia (intraperitoneal) in CD2F1 (CDF1) mice
Settings: endpoint: median survival time, higher = longer survival
Procedure, shortened: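 Mice carrying the transplanted tumor received test compound or vehicle. Survival was recorded in each group, and the value is the treated-group measurement divided by that of the vehicle-treated control group.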

[1] = dose: 25.0 mg/kg/injection, schedule: Q01DX009 (ip), vehicle: saline with Tween-80
[2] = dose: 50.0 mg/kg/injection, schedule: Q01DX009 (ip), vehicle: saline with Tween-80
[3] = dose: 100.0 mg/kg/injection, schedule: Q01DX009 (ip), vehicle: saline with Tween-80
[4] = dose: 200.0 mg/kg/injection, schedule: Q01DX009 (ip), vehicle: saline with Tween-80
[5] = dose: 25.0 mg/kg/injection, schedule: Q01DX009 (ip), vehicle: saline
[6] = dose: 50.0 mg/kg/injection, schedule: Q01DX009 (ip), vehicle: saline
[7] = dose: 100.0 mg/kg/injection, schedule: Q01DX009 (ip), vehicle: saline
[8] = dose: 50.0 mg/kg/injection, schedule: Q01DX005 (ip), vehicle: Klucel (hydroxypropylcellulose) (HPC)
[9] = dose: 100.0 mg/kg/injection, schedule: Q01DX005 (ip), vehicle: Klucel (hydroxypropylcellulose) (HPC)
[10] = dose: 200.0 mg/kg/injection, schedule: Q01DX005 (ip), vehicle: Klucel (hydroxypropylcellulose) (HPC)
[11] = dose: 50.0 mg/kg/injection, schedule: Q01DX009 (ip), vehicle: Klucel (hydroxypropylcellulose) (HPC)
[12] = dose: 100.0 mg/kg/injection, schedule: Q01DX001 (ip), vehicle: saline with Tween-80
[13] = dose: 200.0 mg/kg/injection, schedule: Q01DX001 (ip), vehicle: saline with Tween-80
[14] = dose: 400.0 mg/kg/injection, schedule: Q01DX001 (ip), vehicle: saline with Tween-80
[15] = dose: 50.0 mg/kg/injection, schedule: Q01DX005 (ip), vehicle: saline

Measured: T/C

CC(=O)OCC1Cn2c(c(-c3ccccc3)c(=O)[nH]c2=S)O1 (stereo not drawn)
inactive: dose: 100.0 mg/kg/injection, schedule: Q04DX002 (ip), vehicle: Klucel (hydroxypropylcellulose) (HPC) 106 % of control | dose: 200.0 mg/kg/injection, schedule: Q04DX002 (ip), vehicle: Klucel (hydroxypropylcellulose) (HPC) 107 % of control | dose: 400.0 mg/kg/injection, schedule: Q04DX002 (ip), vehicle: Klucel (hydroxypropylcellulose) (HPC) 110 % of control

COc1cc(NC(C)CCCNC(C)C)c2ncccc2c1 (stereo not drawn)
inactive: dose: 6.25 mg/kg/injection, schedule: Q01DX005 (ip), vehicle: saline with Tween-80 100 % of control | dose: 12.5 mg/kg/injection, schedule: Q01DX005 (ip), vehicle: saline with Tween-80 100 % of control

COc1cc2c(cc1OC(C)=O)C(=O)C(Br)(Br)CCC2
inactive: dose: 15.0 mg/kg/injection, schedule: Q01DX009 (ip), vehicle: saline with Tween-80 98 % of control | [1] 103 % of control | dose: 30.0 mg/kg/injection, schedule: Q01DX009 (ip), vehicle: saline with Tween-80 106 % of control | [2] 100 % of control and 116 % of control | dose: 60.0 mg/kg/injection, schedule: Q01DX009 (ip), vehicle: saline with Tween-80 100 % of control | [3] 99 % of control | [4] 106 % of control

CCOP1(=O)N(C)CCN1C
inactive: dose: 12.5 mg/kg/injection, schedule: Q01DX009 (ip), vehicle: saline 117 % of control | [5] 111 % of control | [6] 101 % of control

CCN=C1C=CC(=C(c2ccc(N)cc2)c2ccc(N(CC)CC)c(C)c2)C=C1
inactive: dose: 1.56 mg/kg/injection, schedule: Q01DX005 (ip), vehicle: saline 106 % of control | dose: 3.12 mg/kg/injection, schedule: Q01DX005 (ip), vehicle: saline 112 % of control

CC(=NC(C)(C)C)N1CCCCC1
inactive: [5] 106 % of control | [6] 100 % of control and 90 % of control | [7] 105 % of control

CC1C2Cc3ccc(O)cc3C1(C)CCN2CCC(=O)c1ccccc1 (stereo not drawn)
inactive: [8] 92 % of control | [9] 88 % of control | [10] 88 % of control

COC1(OC)C(c2ccc(Cl)cc2)C(C#N)(C#N)C1(OC)OC (stereo not drawn)
inactive: dose: 60.0 mg/kg/injection, schedule: Q01DX005 (ip), vehicle: Klucel (hydroxypropylcellulose) (HPC) 100 % of control | dose: 120.0 mg/kg/injection, schedule: Q01DX005 (ip), vehicle: Klucel (hydroxypropylcellulose) (HPC) 102 % of control | dose: 240.0 mg/kg/injection, schedule: Q01DX005 (ip), vehicle: Klucel (hydroxypropylcellulose) (HPC) 96 % of control

CN(C)CCCn1c(=O)nc2n(-c3ccccc3)c3ccccc3nc-2c1=O
inactive: dose: 6.25 mg/kg/injection, schedule: Q01DX009 (ip), vehicle: Klucel (hydroxypropylcellulose) (HPC) 100 % of control and 106 % of control | dose: 12.5 mg/kg/injection, schedule: Q01DX009 (ip), vehicle: Klucel (hydroxypropylcellulose) (HPC) 105 % of control | dose: 25.0 mg/kg/injection, schedule: Q01DX009 (ip), vehicle: Klucel (hydroxypropylcellulose) (HPC) 109 % of control | [11] 122 % of control

CNC(=O)C1OCCOCCOC(C(=O)NC)C(C(=O)NC)OCCOCCOC1C(=O)NC (stereo not drawn)
inactive: [8] 96 % of control | [9] 98 % of control | [10] 97 % of control

Cc1c(C(=N)C(C#N)C#N)c(=N)oc2c1ccc1ccccc12
inactive: dose: 6.25 mg/kg/injection, schedule: Q01DX009 (ip), vehicle: saline with Tween-80 94 % of control and 97 % of control | dose: 12.5 mg/kg/injection, schedule: Q01DX009 (ip), vehicle: saline with Tween-80 86 % of control and 96 % of control | [1] 115 % of control and 87 % of control and 95 % of control | [2] 123 % of control and 94 % of control (2×) | [3] 100 % of control and 92 % of control | [4] 116 % of control

COc1cc(C(C)(C)C)cc(OC)c1Br
inactive: [2] 101 % of control | [3] 88 % of control | [4] 90 % of control

CNC(=O)Sc1nnnc2ccccc12
inactive: [12] 109 % of control | [13] 104 % of control | [14] 118 % of control

CC1CCC(C(C)C)C(OC(=O)c2ccc[n+](C)c2)C1 (stereo not drawn)
inactive: dose: 12.5 mg/kg/injection, schedule: Q01DX005 (ip), vehicle: saline 105 % of control | dose: 25.0 mg/kg/injection, schedule: Q01DX005 (ip), vehicle: saline 116 % of control | [15] 100 % of control and 105 % of control

[NH-]c1ncnc2[nH]c(C[N-]C(Cc3cnc[nH]3)C(=O)O)nc12.[Pd+2] (stereo not drawn)
inactive: [15] 90 % of control | dose: 100.0 mg/kg/injection, schedule: Q01DX005 (ip), vehicle: saline 97 % of control | dose: 200.0 mg/kg/injection, schedule: Q01DX005 (ip), vehicle: saline 94 % of control

CC(=O)NCCSC(NC(=O)c1ccccc1)C(=O)O (stereo not drawn)
inactive: [11] 90 % of control | dose: 100.0 mg/kg/injection, schedule: Q01DX009 (ip), vehicle: Klucel (hydroxypropylcellulose) (HPC) 101 % of control | dose: 200.0 mg/kg/injection, schedule: Q01DX009 (ip), vehicle: Klucel (hydroxypropylcellulose) (HPC) 98 % of control

COc1nccnn1
inactive: [6] 95 % of control | [7] 91 % of control | dose: 200.0 mg/kg/injection, schedule: Q01DX009 (ip), vehicle: saline 95 % of control | dose: 400.0 mg/kg/injection, schedule: Q01DX009 (ip), vehicle: saline 107 % of control

O=C(/C=C\c1cccc2ccccc12)c1ccccn1
inactive: [12] 106 % of control | [13] 112 % of control | [14] 112 % of control

CCOc1ccc2nc([NH-])sc2c1.CCOc1ccc2nc([NH-])sc2c1.CCOc1ccc2nc([NH-])sc2c1.CCOc1ccc2nc([NH-])sc2c1.[Cl][Rh][Cl]
inactive: dose: 12.5 mg/kg/injection, schedule: Q01DX001 (ip), vehicle: DMSO 102 % of control | dose: 25.0 mg/kg/injection, schedule: Q01DX001 (ip), vehicle: DMSO 102 % of control and 105 % of control | dose: 50.0 mg/kg/injection, schedule: Q01DX001 (ip), vehicle: DMSO 107 % of control and 94 % of control | dose: 100.0 mg/kg/injection, schedule: Q01DX001 (ip), vehicle: DMSO 113 % of control and 124 % of control and 91 % of control

NC(=O)CCNC(=O)CCCNC(=O)CCC[c-]1[c-][c-][c-][c-]1.[Fe].[c-]1[c-][c-][cH-][c-]1
inactive: dose: 12.5 mg/kg/injection, schedule: Q01DX009 (ip), vehicle: distilled water + Tween-80 111 % of control and 119 % of control | dose: 25.0 mg/kg/injection, schedule: Q01DX009 (ip), vehicle: distilled water + Tween-80 115 % of control | dose: 100.0 mg/kg/injection, schedule: Q01DX009 (ip), vehicle: distilled water + Tween-80 123 % of control

CN1CCC/C1=C1/Cc2ccccc2C1=O
inactive: [8] 91 % of control | [9] 108 % of control

Cc1ccc(S(=O)(=O)NC(=O)NC(=S)c2cccs2)cc1
inactive: dose: 50.0 mg/kg/injection, schedule: Q01DX001 (ip), vehicle: saline with Tween-80 98 % of control | [12] 97 % of control | [13] 91 % of control
